From ChEMBL document CHEMBL1201862, “PubChem BioAssay data set” (2004)
One block for each compound: values may come before it. Active and inactive are the calls of the source.

Experiments:
[1] = decrease of insulin promoter-GFP reporter – imaging, high-content screening, mouse beta cells (AID 1628); format: functional; conditions: MIN6
[2] = MIN6 cell viability loss – mouse insulinoma, cytotoxicity control, dose response (AID 2122); format: functional;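 note: confirmatory high-throughput counterscreen run to flag cytotoxic compounds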
Beta-galactosidase = Beta-galactosidase (Escherichia coli, UniProt Q8VNN2); test: PubChem AID 485352; format: functional
[3] = target: T1, Type-1 angiotensin II receptor (Homo sapiens, UniProt P30556); test: antagonism of angiotensin II type 1 receptor – cell-based, uHTS hits, selectivity assay for APJ receptor antagonist project, dose response (AID 463214); format: functional;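 note: antagonist potency against angiotensin II stimulated AT1 response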
T1 sequence (P30556 whole entry): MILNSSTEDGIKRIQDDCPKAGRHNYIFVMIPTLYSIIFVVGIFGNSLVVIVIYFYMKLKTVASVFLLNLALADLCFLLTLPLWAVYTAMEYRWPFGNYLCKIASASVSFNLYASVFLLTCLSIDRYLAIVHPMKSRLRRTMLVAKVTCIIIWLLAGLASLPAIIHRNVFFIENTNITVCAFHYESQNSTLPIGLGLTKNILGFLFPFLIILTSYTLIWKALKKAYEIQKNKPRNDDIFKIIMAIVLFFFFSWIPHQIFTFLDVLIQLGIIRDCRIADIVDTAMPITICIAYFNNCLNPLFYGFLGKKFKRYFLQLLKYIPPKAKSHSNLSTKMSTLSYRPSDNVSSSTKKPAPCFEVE

CHO-K1 = test: (§1) Counterscreen for antagonists of the orexin 1 receptor (OX1R; HCRTR1): Homogeneous time resolved fluorescence (HTRF)-based cell-based dose response assay to identify antagonists of the parental CHO-K1 cell line. [Related pubchem assays (depositor defined):AID434989, AID435008, AID463079, AID485270, AID492963, AID492964, AID492965, AID493232, AID504699, AID504701]; format: functional; conditions: Cricetulus griseus
[4] = as §1, with “Fluorescence-based” for “Homogeneous time resolved fluorescence (HTRF)-based”, “cell-based high throughput” for “cell-based”, “CHO” for “CHO-K1”; format: functional
[5] = target: T2, Orexin/Hypocretin receptor type 1 (Homo sapiens, UniProt O43613); test: Homogeneous Time Resolved Fluorescence (HTRF)-based cell-based high throughput dose response assay for antagonists of the orexin 1 receptor (OX1R; HCRTR1). [Related pubchem assays (depositor defined):AID434989, AID435008, AID463079, AID485270, AID492963, AID492964, AID492965, AID493232, AID504717, AID504718]; format: functional
T2 sequence (O43613 whole entry): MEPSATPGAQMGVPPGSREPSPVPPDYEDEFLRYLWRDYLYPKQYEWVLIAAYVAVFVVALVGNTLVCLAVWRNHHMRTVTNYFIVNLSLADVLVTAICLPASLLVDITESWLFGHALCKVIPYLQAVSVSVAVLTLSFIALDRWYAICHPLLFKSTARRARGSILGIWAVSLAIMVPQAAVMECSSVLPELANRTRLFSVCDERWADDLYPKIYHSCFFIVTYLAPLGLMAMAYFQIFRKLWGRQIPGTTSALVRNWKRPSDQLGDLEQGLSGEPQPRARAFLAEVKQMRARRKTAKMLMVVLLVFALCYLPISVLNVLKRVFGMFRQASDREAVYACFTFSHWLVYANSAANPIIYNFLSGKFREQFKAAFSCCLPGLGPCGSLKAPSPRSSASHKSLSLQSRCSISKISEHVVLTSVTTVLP

[6] = target: T2, Orexin/Hypocretin receptor type 1; test: Fluorescence-based cell-based high throughput dose response assay for antagonists of the orexin 1 receptor (OX1R; HCRTR1). [Related pubchem assays (depositor defined):AID434989, AID435008, AID463079, AID485270, AID492963, AID492964, AID492965, AID493232, AID504717, AID504718]; format: functional
Vero = test: viability of Vero cells under compound – cytotoxicity control for flavivirus capping enzyme inhibitors (AID 588742); format: functional; conditions: Chlorocebus sabaeus
[7] = NIH-3T3 fibroblast cytotoxicity, dose response, cytotoxicity control, cell-based, fluorescence, Alamar Blue, secondary assay (AID 2327); format: functional;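 note: NIH-3T3 mouse fibroblasts cultured with fluconazole at 8 µg/mL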
[8] = fluconazole-exposed Candida albicans growth modulators – fluorescence, retest, confirmation (AID 2467); format: functional, cell-based
[9] = Trypanosoma cruzi growth suppression in host cells – NIH3T3 host cells, beta-gal luminescence, confirmation (AID 2044); format: functional, cell-based;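 note: intracellular parasites grown in NIH/3T3 mouse fibroblasts as host cells; luminescent beta-galactosidase reporter signal from transgenic T. cruzi replicating inside host cells; inhibitors lower the luminescence signal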
[10] = NIH3T3 cell viability loss – ATP luminescence, mouse fibroblasts, counter-screen, dose response (AID 2010); format: functional, cell-based;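 note: cells exposed to compound for about 90 hours before reading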
[11] = target: DNA dC->dU-editing enzyme APOBEC-3A (Homo sapiens, UniProt P31941); test: Dose Response confirmation of small molecule APOBEC3A DNA Deaminase Inhibitors via a fluorescence-based single-stranded DNA deaminase assay. [Related pubchem assays (depositor defined):AID493011, AID493024]; format: functional
[12] = target: DNA dC->dU-editing enzyme APOBEC-3G (Homo sapiens, UniProt Q9HC16); format: functional;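 note: Dose-response counterscreen measuring inhibition of APOBEC3G DNA deaminase activity, run while confirming APOBEC3A inhibitors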
Cytochrome P450 2C19 = Cytochrome P450 2C19 (Homo sapiens, UniProt P33261); test: Cytochrome panel assay with activity outcomes. Panel member name: p450-cyp2c19 Compounds with AC50 equal or less than 10 uM are considered active; format: functional; conditions: read-out: AC50
Cytochrome P450 3A4 = Cytochrome P450 3A4 (Homo sapiens, UniProt P08684);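 note: CYP3A4 tested as one member of a cytochrome P450 panel screen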
[13] = target: Voltage-gated inwardly rectifying potassium channel KCNH2 (Homo sapiens, UniProt Q12809); conditions: Potency;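 note: confirmatory quantitative high-throughput screen measuring inhibition of hERG channel activity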
[14] = target: T3, E3 ubiquitin-protein ligase XIAP (Homo sapiens, UniProt P98170); test: Counter Screen using XIAP-Bir3 for Chemical Antagonists of Bir1/2 domains of IAP-family anti-apoptotic proteins. [Related pubchem assays (depositor defined):AID1018, AID1449, AID1514, AID1638, AID1749, AID1750, AID488957, AID488963]
[15] = target: T3, E3 ubiquitin-protein ligase XIAP; test: small molecules displacing peptide from XIAP – biochemical, IAP family, fluorescence polarization (AID 1018); format: functional
[16] = target: T4, Heat shock factor protein 1 (Mus musculus, UniProt P38532); test: enhancement of HSF1-driven luciferase signal – cell-based, NIH3T3, luminescence, dose retest, confirmation (AID 435004); format: functional;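 note: stress induced by proteasome inhibitor MG132 added 30 min after compound; luciferase reporter driven by HSF1 response element in NIH3T3 cells; actives raise luminescence as potentiators of the MG132 stress response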
T4 sequence (P38532 whole entry): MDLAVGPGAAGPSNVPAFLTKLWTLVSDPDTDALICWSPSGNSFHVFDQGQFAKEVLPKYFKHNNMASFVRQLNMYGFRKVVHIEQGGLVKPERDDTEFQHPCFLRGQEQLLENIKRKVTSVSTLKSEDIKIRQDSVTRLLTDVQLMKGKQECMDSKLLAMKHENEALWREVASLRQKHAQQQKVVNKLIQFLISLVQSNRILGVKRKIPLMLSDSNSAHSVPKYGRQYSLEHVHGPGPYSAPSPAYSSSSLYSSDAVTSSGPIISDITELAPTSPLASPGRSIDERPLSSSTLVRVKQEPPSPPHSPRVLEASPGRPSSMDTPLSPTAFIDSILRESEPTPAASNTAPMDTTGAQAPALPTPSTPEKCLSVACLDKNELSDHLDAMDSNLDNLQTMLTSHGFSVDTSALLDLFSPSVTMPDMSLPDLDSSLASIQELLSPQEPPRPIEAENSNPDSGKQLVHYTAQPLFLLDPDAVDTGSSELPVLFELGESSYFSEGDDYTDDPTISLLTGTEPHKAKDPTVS

INS1 = test: INS-1E survival protection against cytokine death – cell-based, luminescence, retest, dose response (AID 449756); format: functional; conditions: Rattus norvegicus;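 note: cell death triggered by IL-1 beta plus TNF-alpha plus IFN-gamma mixture; protective hits raise ATP signal compared with cytokine alone wells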
H9c2 = test: cells; format: functional, cell-based; conditions: Rattus norvegicus, H9c2, Myocardium;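 note: confirmatory concentration-response retest of ultra-high-throughput screening hits for modulation of myocardial damage; cell death induced by hydrogen peroxide oxidative stress; compound pretreatment for 60 min then peroxide exposure for 2 h; potency is for protecting the cells against peroxide damage rather than for killing them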
[17] = target: T5, Apoptotic protease-activating factor 1 (Homo sapiens, UniProt O14727); format: functional
T5 sequence (O14727 whole entry): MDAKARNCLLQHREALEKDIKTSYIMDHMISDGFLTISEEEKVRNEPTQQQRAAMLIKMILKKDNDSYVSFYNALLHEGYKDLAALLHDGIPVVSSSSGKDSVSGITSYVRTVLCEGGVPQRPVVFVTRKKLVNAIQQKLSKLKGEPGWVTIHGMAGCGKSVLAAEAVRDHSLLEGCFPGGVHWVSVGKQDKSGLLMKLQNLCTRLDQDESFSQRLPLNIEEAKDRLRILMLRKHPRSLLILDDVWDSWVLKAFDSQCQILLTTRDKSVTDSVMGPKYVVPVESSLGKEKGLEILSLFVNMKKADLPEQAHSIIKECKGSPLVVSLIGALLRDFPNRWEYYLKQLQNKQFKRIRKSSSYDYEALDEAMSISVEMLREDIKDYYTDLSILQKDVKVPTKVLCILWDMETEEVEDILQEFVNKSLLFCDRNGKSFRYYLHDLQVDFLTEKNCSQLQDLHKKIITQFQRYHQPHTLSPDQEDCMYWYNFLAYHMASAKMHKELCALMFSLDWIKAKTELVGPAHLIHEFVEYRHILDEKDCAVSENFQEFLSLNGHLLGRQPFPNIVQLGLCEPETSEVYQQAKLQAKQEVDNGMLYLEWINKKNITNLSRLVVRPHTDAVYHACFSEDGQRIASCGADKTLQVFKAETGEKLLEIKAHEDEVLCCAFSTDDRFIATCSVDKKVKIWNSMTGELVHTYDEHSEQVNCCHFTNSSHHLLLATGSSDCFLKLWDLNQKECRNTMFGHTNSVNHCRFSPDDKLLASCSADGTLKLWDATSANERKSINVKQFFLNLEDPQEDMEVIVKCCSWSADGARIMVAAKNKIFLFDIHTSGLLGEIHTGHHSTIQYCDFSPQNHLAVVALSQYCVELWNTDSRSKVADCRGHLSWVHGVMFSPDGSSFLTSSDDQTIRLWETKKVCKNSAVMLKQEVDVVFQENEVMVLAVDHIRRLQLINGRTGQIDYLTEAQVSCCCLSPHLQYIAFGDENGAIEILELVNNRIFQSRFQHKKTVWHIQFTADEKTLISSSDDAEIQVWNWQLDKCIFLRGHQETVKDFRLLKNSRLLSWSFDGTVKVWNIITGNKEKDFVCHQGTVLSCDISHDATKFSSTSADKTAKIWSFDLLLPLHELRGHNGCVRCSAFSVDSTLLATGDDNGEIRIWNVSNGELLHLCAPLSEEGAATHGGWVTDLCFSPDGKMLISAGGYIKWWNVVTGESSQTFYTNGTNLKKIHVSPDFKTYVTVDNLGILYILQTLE

Chain of Beta-galactosidase (Q8VNN2 whole entry): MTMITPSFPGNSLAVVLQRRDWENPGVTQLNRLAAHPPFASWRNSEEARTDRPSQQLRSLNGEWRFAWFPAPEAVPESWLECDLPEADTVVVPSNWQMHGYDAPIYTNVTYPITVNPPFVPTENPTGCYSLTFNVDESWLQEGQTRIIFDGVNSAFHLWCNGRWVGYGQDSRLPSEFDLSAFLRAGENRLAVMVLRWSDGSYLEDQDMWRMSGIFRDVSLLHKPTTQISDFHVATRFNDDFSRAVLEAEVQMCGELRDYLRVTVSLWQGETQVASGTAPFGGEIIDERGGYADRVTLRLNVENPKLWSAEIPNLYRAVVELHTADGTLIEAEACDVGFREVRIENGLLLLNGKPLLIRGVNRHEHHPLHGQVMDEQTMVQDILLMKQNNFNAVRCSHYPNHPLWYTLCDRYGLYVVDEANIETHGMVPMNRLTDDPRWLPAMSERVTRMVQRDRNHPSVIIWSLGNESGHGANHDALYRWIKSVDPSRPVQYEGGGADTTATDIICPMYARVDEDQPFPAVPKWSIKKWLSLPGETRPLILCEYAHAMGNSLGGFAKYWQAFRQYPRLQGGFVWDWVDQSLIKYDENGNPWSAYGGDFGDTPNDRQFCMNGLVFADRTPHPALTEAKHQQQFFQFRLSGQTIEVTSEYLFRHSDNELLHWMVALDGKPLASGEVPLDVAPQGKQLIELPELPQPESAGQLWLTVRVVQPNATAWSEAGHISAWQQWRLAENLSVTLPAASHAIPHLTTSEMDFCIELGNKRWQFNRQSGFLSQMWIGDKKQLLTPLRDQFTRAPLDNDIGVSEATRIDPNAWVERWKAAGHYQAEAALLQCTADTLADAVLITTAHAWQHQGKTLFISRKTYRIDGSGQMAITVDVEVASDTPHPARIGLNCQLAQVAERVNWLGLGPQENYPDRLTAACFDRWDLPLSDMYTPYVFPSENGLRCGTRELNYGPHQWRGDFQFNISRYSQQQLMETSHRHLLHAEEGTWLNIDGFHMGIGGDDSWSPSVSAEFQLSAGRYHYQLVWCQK
T3 sequence (P98170 whole entry): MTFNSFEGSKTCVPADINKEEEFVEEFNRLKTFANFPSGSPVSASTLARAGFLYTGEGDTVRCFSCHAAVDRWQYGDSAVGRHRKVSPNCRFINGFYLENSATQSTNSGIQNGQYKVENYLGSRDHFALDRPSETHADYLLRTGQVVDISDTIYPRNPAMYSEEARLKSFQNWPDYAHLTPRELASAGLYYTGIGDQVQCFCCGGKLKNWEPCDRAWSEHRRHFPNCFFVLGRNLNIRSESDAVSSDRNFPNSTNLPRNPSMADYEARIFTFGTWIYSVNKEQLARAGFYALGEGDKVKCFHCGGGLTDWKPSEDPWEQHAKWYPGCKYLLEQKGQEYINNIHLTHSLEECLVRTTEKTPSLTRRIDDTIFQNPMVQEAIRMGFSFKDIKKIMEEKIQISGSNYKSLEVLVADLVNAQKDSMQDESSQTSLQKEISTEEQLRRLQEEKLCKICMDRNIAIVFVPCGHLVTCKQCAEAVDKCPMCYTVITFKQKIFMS
Chain of Voltage-gated inwardly rectifying potassium channel KCNH2 (Q12809 whole entry): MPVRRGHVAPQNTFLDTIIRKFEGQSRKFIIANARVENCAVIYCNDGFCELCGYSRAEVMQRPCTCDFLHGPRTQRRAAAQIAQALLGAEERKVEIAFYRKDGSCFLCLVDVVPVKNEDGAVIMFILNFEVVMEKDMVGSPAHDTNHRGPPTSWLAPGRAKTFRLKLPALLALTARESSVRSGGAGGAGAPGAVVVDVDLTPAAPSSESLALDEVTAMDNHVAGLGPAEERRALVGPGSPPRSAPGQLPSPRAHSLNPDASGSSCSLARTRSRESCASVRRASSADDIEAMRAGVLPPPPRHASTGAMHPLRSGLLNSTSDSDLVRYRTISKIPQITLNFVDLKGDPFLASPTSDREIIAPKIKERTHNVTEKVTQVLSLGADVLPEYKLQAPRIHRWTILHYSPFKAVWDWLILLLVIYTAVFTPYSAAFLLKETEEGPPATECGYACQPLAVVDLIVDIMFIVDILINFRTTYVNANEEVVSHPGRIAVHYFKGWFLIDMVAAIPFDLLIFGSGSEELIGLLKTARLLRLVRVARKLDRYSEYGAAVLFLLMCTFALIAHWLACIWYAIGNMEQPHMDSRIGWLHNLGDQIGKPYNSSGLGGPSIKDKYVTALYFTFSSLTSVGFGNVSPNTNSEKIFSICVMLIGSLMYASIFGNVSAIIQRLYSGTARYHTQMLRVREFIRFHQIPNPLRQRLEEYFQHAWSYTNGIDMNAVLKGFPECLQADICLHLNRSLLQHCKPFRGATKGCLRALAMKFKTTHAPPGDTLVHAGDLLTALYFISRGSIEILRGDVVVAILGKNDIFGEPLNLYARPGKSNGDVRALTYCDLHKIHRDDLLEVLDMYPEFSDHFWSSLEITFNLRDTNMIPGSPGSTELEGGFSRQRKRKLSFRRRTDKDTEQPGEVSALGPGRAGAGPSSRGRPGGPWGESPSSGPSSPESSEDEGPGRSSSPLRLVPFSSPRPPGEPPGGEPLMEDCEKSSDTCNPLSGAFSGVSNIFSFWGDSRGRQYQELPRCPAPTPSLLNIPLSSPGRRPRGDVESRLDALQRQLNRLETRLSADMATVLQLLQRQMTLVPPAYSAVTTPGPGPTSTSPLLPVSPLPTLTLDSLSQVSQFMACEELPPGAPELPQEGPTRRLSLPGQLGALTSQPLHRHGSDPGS
Chain of DNA dC->dU-editing enzyme APOBEC-3G (Q9HC16 whole entry): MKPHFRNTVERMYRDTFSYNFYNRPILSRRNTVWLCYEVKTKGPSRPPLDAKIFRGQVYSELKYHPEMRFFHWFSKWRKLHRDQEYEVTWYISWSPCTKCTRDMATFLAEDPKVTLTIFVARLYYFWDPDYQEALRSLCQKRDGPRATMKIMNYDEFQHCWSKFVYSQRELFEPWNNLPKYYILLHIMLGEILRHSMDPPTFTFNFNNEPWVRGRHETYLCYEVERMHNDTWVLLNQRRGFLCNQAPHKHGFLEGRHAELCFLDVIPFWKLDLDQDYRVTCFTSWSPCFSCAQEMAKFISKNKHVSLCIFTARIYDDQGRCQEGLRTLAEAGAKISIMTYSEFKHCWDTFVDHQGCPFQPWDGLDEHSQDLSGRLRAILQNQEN
Chain of DNA dC->dU-editing enzyme APOBEC-3A (P31941 whole entry): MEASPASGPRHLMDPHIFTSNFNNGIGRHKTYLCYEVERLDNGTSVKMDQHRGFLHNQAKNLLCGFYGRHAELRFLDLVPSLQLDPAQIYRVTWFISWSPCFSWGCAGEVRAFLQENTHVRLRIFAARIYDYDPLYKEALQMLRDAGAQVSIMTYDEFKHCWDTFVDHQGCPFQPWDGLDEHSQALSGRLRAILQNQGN
Chain of Cytochrome P450 3A4 (P08684 whole entry): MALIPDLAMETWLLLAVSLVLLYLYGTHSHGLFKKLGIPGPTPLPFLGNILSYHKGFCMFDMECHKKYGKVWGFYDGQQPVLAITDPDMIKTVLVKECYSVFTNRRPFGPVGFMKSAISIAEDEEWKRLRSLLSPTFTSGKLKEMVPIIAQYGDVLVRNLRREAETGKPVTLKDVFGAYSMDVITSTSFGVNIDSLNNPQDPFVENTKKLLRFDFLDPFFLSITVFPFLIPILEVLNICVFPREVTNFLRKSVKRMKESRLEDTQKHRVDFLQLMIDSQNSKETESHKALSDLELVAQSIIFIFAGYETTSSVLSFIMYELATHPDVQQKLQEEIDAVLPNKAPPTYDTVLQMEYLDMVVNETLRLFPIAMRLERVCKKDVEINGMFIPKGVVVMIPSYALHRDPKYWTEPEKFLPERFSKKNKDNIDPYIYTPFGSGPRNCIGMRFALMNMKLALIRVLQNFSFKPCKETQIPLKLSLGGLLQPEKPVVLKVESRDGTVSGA
Chain of Cytochrome P450 2C19 (P33261 whole entry): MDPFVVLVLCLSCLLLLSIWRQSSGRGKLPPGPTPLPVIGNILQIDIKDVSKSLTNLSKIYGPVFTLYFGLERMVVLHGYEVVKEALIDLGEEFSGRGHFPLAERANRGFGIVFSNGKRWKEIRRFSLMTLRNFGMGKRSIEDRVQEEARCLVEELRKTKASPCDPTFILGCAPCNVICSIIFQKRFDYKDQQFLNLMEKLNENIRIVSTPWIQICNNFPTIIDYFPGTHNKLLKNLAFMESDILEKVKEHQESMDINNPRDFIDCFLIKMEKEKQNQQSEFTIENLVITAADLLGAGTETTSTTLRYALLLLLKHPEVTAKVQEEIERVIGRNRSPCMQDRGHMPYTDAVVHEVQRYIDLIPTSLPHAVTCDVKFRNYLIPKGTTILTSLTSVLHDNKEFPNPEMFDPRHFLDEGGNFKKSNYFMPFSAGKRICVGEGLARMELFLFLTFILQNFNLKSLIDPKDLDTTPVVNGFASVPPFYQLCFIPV

SMILES: Cc1cc(NC(=O)c2cnn3c(C(F)(F)F)cc(-c4ccccc4)nc23)no1
IC50 [1]: 1.99 µM (active) | IC50 [2]: > 16 µM (inactive)

EC50 (Beta-galactosidase): > 40 µM (inactive) | IC50 [3]: > 40 µM (not active)
SMILES: Cc1nn(CCC(=O)NN=C(S)Nc2ccccc2)c(C)c1Br

SMILES: O=c1sc(Nc2ccccc2)nc2ccsc12
IC50 (CHO-K1): > 66.2 µM (inactive) | IC50 [4]: > 49.8 µM (inactive) | IC50 [5]: 2.43 µM (active) | IC50 [6]: 12.9 µM (inactive)

SMILES: COc1ccc(C(=O)NC2CC(C)(C)Cc3occc32)cc1 (configuration not stated)
CC50 (Vero): > 40 µM (active)

SMILES: CN(/C=C/C1=[N+](C)c2ccccc2C1(C)C)c1ccccc1
EC50 [7]: > 160 µM (inactive) | EC50 [8]: > 38 µM (not active) | EC50 [9]: 0.335 µM (active) | EC50 [10]: > 60 µM (inconclusive) | IC50 [11]: 1.67 µM (active) | IC50 [12]: 2.31 µM (active) | AC50 (Cytochrome P450 2C19): 0.00708 µM (inconclusive) | AC50 (Cytochrome P450 3A4): 31.6 µM (inconclusive)

SMILES: O=C=Nc1ccc(Cc2ccc(N=C=O)cc2)cc1
AC50 [13]: 79.4 µM (inconclusive)

IC50 [14]: > 100 µM (inactive) | IC50 [15]: > 100 µM (not active)
SMILES: c1ccc(CCc2nc(-c3ccc(-n4cccc4)cc3)no2)cc1

IC50 [14]: > 100 µM (inactive) | IC50 [15]: > 100 µM (not active)
SMILES: COC(=O)c1ccc(/C=C/C(=O)c2ccc(OC)cc2)cc1

EC50 (Beta-galactosidase): > 40 µM (inactive) | IC50 [3]: 28.4 µM (not active) | EC50 [16]: > 260 µM (inactive)
SMILES: COC(=O)C1NN=C(C(=O)c2ccc(Cl)cc2)C1c1ccc(OC)cc1 (configuration not stated)

SMILES: COc1ccc2c(c1)C(=O)[C@@H](O)[C@H](c1ccc(OC)c(Br)c1)O2
EC50 (Beta-galactosidase): > 40 µM (inactive) | IC50 [3]: 34.6 µM (not active) | AC50 (INS1): 4.2 µM (active) | IC50 (H9c2): > 79 µM (inactive)

IC50 [17]: > 100 µM (inactive)
SMILES: CC1(C)Cc2cccc(OCC(=O)N3CCN(c4cccc(C(F)(F)F)c4)CC3)c2O1

SMILES: CC(/C=C/c1cccc(Oc2ccc(F)cc2)c1)N(O)C(N)=O (configuration not stated)
AC50 [13]: 0.2 µM (inconclusive)

SMILES: CCCCOC(=O)c1ccccc1C(=O)OCCCC [DIBUTYL PHTHALATE]
AC50 [13]: 79.4 µM (inconclusive)
